# Laboratory results as given in ChEMBL document CHEMBL1201862, “PubChem BioAssay data set” (2004).
#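 These data come from cells grown in 96-well plates and exposed to compound for 48 hours at five concentrations. At the GI50, growth is halved.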 Active and inactive are the calls of the source. Cut-off read from the data, not from the text of the source: active = GI50 up to about 1.1 µM and inactive = higher.
# Legend:
# Experiment in all cases: NCI-60 cell line screen, 48 h
# 786-0 = system: 786-0
# BT-549 = system: BT-549
# DU-145 = system: DU-145
# EKVX = system: EKVX
# K562 = system: K562
# MDA-MB-231 = system: MDA-MB-231
# MDA-MB-435 = system: MDA-MB-435
# MOLT-4 = system: MOLT-4
# NCI-H23 = system: NCI-H23
# NCI-H460 = system: NCI-H460
# NCI/ADR-RES = system: NCI/ADR-RES
# OVCAR-3 = system: OVCAR-3
# OVCAR-4 = system: OVCAR-4
# PC-3 = system: PC-3
# SF-295 = system: SF-295
# SK-MEL-5 = system: SK-MEL-5
# SK-OV-3 = system: SK-OV-3
# SNB-19 = system: SNB-19
# SR = system: SR
# SW-620 = system: SW-620
Structure (SMILES),GI50 (786-0),GI50 (BT-549),GI50 (DU-145),GI50 (EKVX),GI50 (K562),GI50 (MDA-MB-231),GI50 (MDA-MB-435),GI50 (MOLT-4),GI50 (NCI-H23),GI50 (NCI-H460),GI50 (NCI/ADR-RES),GI50 (OVCAR-3),GI50 (OVCAR-4),GI50 (PC-3),GI50 (SF-295),GI50 (SK-MEL-5),GI50 (SK-OV-3),GI50 (SNB-19),GI50 (SR),GI50 (SW-620)
O=C(Nc1nnc(-c2ccccc2)o1)C(SC(=S)N1CCCCC1)c1ccccc1 (stereo not drawn),16.7 µM (inactive),14 µM (inactive),17.2 µM (inactive),20.9 µM (inactive),9.55 µM (inactive),38.5 µM (inactive),21.3 µM (inactive),3.53 µM (inactive),12.4 µM (inactive),7.66 µM (inactive),3.93 µM (inactive),17.3 µM (inactive),30.5 µM (inactive),17.5 µM (inactive),14.1 µM (inactive),13.6 µM (inactive),28.4 µM (inactive),32.1 µM (inactive),4.98 µM (inactive),31.8 µM (inactive)
CCOC(=O)Oc1ccc2c(c1)c(=O)c1c(NCCCN(CC)CC)ccc3nnn2c31,1.59 µM (inactive),17.5 µM (inactive),0.951 µM (active),10.7 µM (inactive),5.13 µM (inactive),1.12 µM (inactive),5.45 µM (inactive),0.745 µM (active),13.3 µM (inactive),0.337 µM (active),7.76 µM (inactive),5.5 µM (inactive),0.33 µM (active),0.303 µM (active),1.82 µM (inactive),10.2 µM (inactive),11.3 µM (inactive),5.2 µM (inactive),1.57 µM (inactive),2.24 µM (inactive)
Cc1ccc(S(=O)(=O)Nc2cc(O)nc3c2CCC3)cc1,> 100 µM (inactive),> 100 µM (inactive),> 100 µM (inactive),> 100 µM (inactive),> 100 µM (inactive),> 100 µM (inactive),> 100 µM (inactive),42.9 µM (inactive),> 100 µM (inactive),> 100 µM (inactive),> 100 µM (inactive),> 100 µM (inactive),57.1 µM (inactive),> 100 µM (inactive),> 100 µM (inactive),73.5 µM (inactive),> 100 µM (inactive),> 100 µM (inactive),> 100 µM (inactive),> 100 µM (inactive)
Cc1ccc2cccc(OC(=O)c3cc4c(cc3Cl)Sc3nccn3S4(=O)=O)c2n1,17 µM (inactive),17.4 µM (inactive),5.83 µM (inactive),16.7 µM (inactive),4.06 µM (inactive),14.1 µM (inactive),9.59 µM (inactive),4.55 µM (inactive),16.3 µM (inactive),3.13 µM (inactive),14 µM (inactive),2.75 µM (inactive),11.3 µM (inactive),4.39 µM (inactive),12.9 µM (inactive),12.3 µM (inactive),22.8 µM (inactive),12.9 µM (inactive),3.75 µM (inactive),9.71 µM (inactive)
CC[C@@]1(O)C(=O)OCc2c1cc1n(c2=O)Cc2c-1nc1ccccc1c2/C=N\NC(=O)C(N)Cc1c[nH]cn1 (stereo partly drawn),0.213 µM (active),3.45 µM (inactive),0.181 µM (active),7.45 µM (inactive),0.468 µM (active),3.4 µM (inactive),1.37 µM (inactive),0.0259 µM (active),0.111 µM (active),0.0832 µM (active),0.41 µM (active),3.95 µM (inactive),4.41 µM (inactive),0.644 µM (active),0.132 µM (active),0.222 µM (active),0.234 µM (active),0.0908 µM (active),0.0101 µM (active),0.148 µM (active)
COc1ccc(/C=C/C(=O)c2cc(C(C)(C)C)c(O)c(C(C)(C)C)c2)cc1OC,8.67 µM (inactive),5.24 µM (inactive),10 µM (inactive),11.2 µM (inactive),3.12 µM (inactive),6.4 µM (inactive),3.2 µM (inactive),2.77 µM (inactive),12.1 µM (inactive),5.52 µM (inactive),4.85 µM (inactive),4.97 µM (inactive),5.9 µM (inactive),3.66 µM (inactive),6.52 µM (inactive),6.75 µM (inactive),18.7 µM (inactive),24.8 µM (inactive),0.551 µM (active),4.32 µM (inactive)
CCOP(=O)(OCC)/C(C#N)=C/c1c(C)[nH]c2ccccc12,> 100 µM (inactive),> 100 µM (inactive),> 100 µM (inactive),> 100 µM (inactive),> 100 µM (inactive),> 100 µM (inactive),> 100 µM (inactive),> 100 µM (inactive),> 100 µM (inactive),> 100 µM (inactive),> 100 µM (inactive),> 100 µM (inactive),> 100 µM (inactive),> 100 µM (inactive),> 100 µM (inactive),> 100 µM (inactive),> 100 µM (inactive),> 100 µM (inactive),> 100 µM (inactive),> 100 µM (inactive)
C(=C(c1ccc(OC2CCCCO2)cc1)c1ccc(OC2CCCCO2)cc1)c1ccccc1 (stereo not drawn),0.519 µM (active),0.543 µM (active),0.838 µM (active),0.456 µM (active),0.35 µM (active),0.361 µM (active),0.557 µM (active),0.392 µM (active),0.546 µM (active),0.395 µM (active),0.883 µM (active),0.577 µM (active),0.392 µM (active),0.469 µM (active),1.18 µM (inactive),0.444 µM (active),1.29 µM (inactive),1.26 µM (inactive),0.371 µM (active),0.54 µM (active)
CCn1ncc(Oc2c(Cl)cc(N)cc2Cl)c(Cl)c1=O,41.5 µM (inactive),25.6 µM (inactive),60.8 µM (inactive),34.9 µM (inactive),35.1 µM (inactive),54.6 µM (inactive),29.1 µM (inactive),–,30.5 µM (inactive),32.2 µM (inactive),31 µM (inactive),17.2 µM (inactive),54 µM (inactive),35.9 µM (inactive),29 µM (inactive),24 µM (inactive),31.3 µM (inactive),33.4 µM (inactive),21.5 µM (inactive),37.2 µM (inactive)
CC(C)(C)c1cc(C2NC(=O)NC2=O)cc(C(C)(C)C)c1O (stereo not drawn),> 10 µM (inactive),> 100 µM (inactive),> 100 µM (inactive),> 100 µM (inactive),33.9 µM (inactive),35.6 µM (inactive),31 µM (inactive),39.5 µM (inactive),56.8 µM (inactive),–,> 100 µM (inactive),34.1 µM (inactive),> 100 µM (inactive),71.9 µM (inactive),64.4 µM (inactive),> 10 µM (inactive),> 100 µM (inactive),> 100 µM (inactive),28.8 µM (inactive),53.6 µM (inactive)
